{"source": "patent US10010569B2", "about": "“Seaweed extracts, unsaturated fatty acids, and methods of treatment” (priority 2012, dated 2018)", "assay_type_in_all_cases": "cell-based, human", "key": {"NQO1 [1]": {"system": "NQO1", "test": "RNA interference (NRF2 siRNA) and NQO1 immunoblot", "settings": "IMR-32 cells, NRF2 siRNA 48 h, then 24 h treatment", "procedure": "(§1) IMR-32 cells (800,000 cells/well) were seeded into each well of 6-well plates. 24 h later, cells were treated with solvent control (EtOH, 0.5%, v/v) or fractions/compounds. After another 24 h, whole cell lysates were collected in PhosphoSafe buffer (Novagen) following the manufacturer's protocol and stored at −80° C. until analyzed. For each sample, the protein concentration was measured using a BCA assay kit (Pierce). Samples containing equal amount of total protein were separated by SDS-PAGE (NuPAGE® Novex® 4-12% Bis-Tris Mini gels, Invitrogen), transferred onto a PVDF membrane, and incubated overnight with the indicated primary antibodies at 4° C. on an orbital shaker. The membranes were then incubated with the corresponding secondary antibodies (HRP-linked) for 1 h at room temperature and detected with Supersignal Femto Western Blotting kit (Pierce). Anti-NQO1 (mouse) antibody was from Abcam; anti-β-actin (rabbit), anti-mouse-HRP, and anti-rabbit-HRP antibodies were from Cell Signaling Technology.\nIMR-32 cells (600,000 cells/well) were seeded in 6-well plates and incubated at 37° C. for 24 h. […] The treated cells were then lysed in PhosphoSafe buffer and whole cell lysates analyzed by immunoblot (see above). […]"}, "NQO1 [2]": {"system": "NQO1", "test": "Kinase inhibitor pre-treatment and NQO1 immunoblot", "settings": "10 μg/ml, 24 h, 30 min pre-treatment with PD98059 50 μM", "procedure": "as §1\nFor assays in the presence of an antioxidant, the cells were pretreated with excess NAC (1 mM, pH 7.50) for 2 h before they were treated with solvent control or the compounds (see above). […]"}, "ARE": {"system": "ARE", "test": "ARE-luc reporter assay", "settings": "IMR-32 cells", "procedure": "IMR-32 cells (33,000 cells/well) were transiently transfected with ARE-luc plasmid (100 ng/well) using FuGENE® HD (Roche Diagnostics) as a transfection reagent (1:3, w/v). The cells were dispensed into each well of a 96-well plate and incubated for 24 h. They were then treated with solvent control (DMSO or EtOH, 1%, v/v) or individual extracts/fractions/compounds for 24 h before ARE activities were detected by using BriteLite detection reagent (PerkinElmer). Relative fold activation for the treated samples over solvent control was reported. The ARE-luciferase (ARE-luc) reporter contains the ARE sequence of human NQO1: 5′-[…]-3′ [Moehlenkamp, J. D.; Johnson, J. A. Activation of antioxidant/electrophile-responsive elements in IMR-32 human neuroblastoma cells. Arch Biochem Biophys. 363:98-106; 1999]."}, "NRF2": {"system": "NRF2", "test": "NRF2 mRNA levels by qPCR in IMR-32 cells", "settings": "1-10 μg/ml, 12 h", "procedure": "(§2) Cultured cells were treated in the same way as described for the immunoblot experiments. After 12 h, total RNA was extracted using a commercial kit (RNeasy Mini Kit, Qiagen). For mice tissues, total RNA was extracted using TRIzol® reagent (Invitrogen) following the standard manufacturer's protocol.\n(§3) cDNA synthesis and qPCR experiments for both cultured cells and mice tissues were performed following the same procedure. 2 μg of each RNA sample was reverse-transcribed into cDNA, which served as a template for TagMan® gene expression assays (Applied Biosystems). For each qPCR run, a total reaction volume of 25 μl was prepared consisting of 12.5 μl of TaqMan 2× universal master mix, 1.25 μl of a 20× TaqMan gene expression assay probe, 1 μl of cDNA and 10.25 μl of RNase-free sterile water. The reactions were dispensed into 96-well optical reaction plates (Applied Biosystems) and detected in an Applied Biosystems® 7300 Real-Time PCR System. The thermocycler program consisted of 2 min at 50° C., 10 min at 95° C., and 40 cycles of 95° C. for 15 s and 60° C. for 1 min. For normalization, GAPDH expression was used as an internal control for human cells (IMR-32) and β-actin for mice tissue samples."}, "NQO1 [3]": {"system": "NQO1", "test": "NQO1 protein expression by immunoblot in IMR-32 cells", "settings": "24 h", "procedure": "as §1"}, "NQO1 [4]": {"system": "NQO1", "test": "NQO1 mRNA levels by qPCR in IMR-32 cells", "settings": "1 μg/ml, 12 h", "procedure": "as §2, §3"}, "glutathione": {"system": "glutathione", "test": "Glutathione assay in IMR-32 cells", "procedure": "Glutathione assays were performed following the manufacturer's protocol (Sigma). Briefly, IMR-32 cells (800,000 cells/well) were seeded into 6-well plates and incubated at 37° C. The cells were then treated with solvent control (EtOH, 0.5%, v/v) or compound 1 for the indicated period of time. At the end of each treatment, the cells were washed twice with Dulbecco's phosphate buffered saline (DPBS), harvested in 200 μl of DPBS, and pelleted at 600×g for 10 min at 4° C. After removal of DPBS, the cell pellet was deproteinized and re-suspended in 3 volumes of 5% sulfosalicylic acid solution (v/v). The suspension was frozen (liquid N2) and thawed (37° C. water bath) twice and then incubated at 4° C. for 5 min. The cell debris was spun down at 10,000×g for 10 min at 4° C. The supernatant was transferred to fresh tubes and used as glutathione stock. The concentration of the total glutathione (GSH+GSSG) was measured and compared with a standard curve of reduced glutathione (GSH)."}, "[5]": {"settings": "10 μg/ml, 24 h, over solvent control"}, "[6]": {"settings": "32 μg/ml, 24 h, over solvent control"}}, "note": "Several values for one entry are separate records, joined by “and”; a condition that tells them apart may be missing. Equal entries are not always repeated.", "data": [{"smiles": "CCCCCCCCCC(=O)/C=C/CCCCCC(=O)O", "note": "[Compound 1, 7(E)-9-keto-octadec-7-enoic acid]", "values": [{"measurement": "NQO1 expression in NRF2-depleted cells", "setting": "NQO1 [1]", "value": "virtually undetectable"}, {"measurement": "NQO1 expression in the presence of a MAPK (MEK1) inhibitor", "setting": "NQO1 [2]", "value": "induced"}, {"measurement": "ARE activation", "setting": "ARE; [5]", "value": 17.6, "unit": "fold"}, {"measurement": "NRF2 mRNA levels", "setting": "NRF2", "value": "remained unchanged"}, {"measurement": "NQO1 protein expression", "setting": "NQO1 [3]", "value": "detectable starting at 1 μg/ml and was the highest at 10 μg/ml"}, {"measurement": "NQO1 mRNA level", "setting": "NQO1 [4]", "value": 1.5, "unit": "fold"}, {"measurement": "glutathione level restored relative to basal level", "setting": "glutathione; at 16 h", "value": "more than 50%"}, {"measurement": "transient decrease of glutathione level", "setting": "glutathione; until 8 h", "value": "< 30% and ~30%"}, {"measurement": "glutathione level versus baseline", "setting": "glutathione; up to 24 h", "value": "stayed above baseline"}]}, {"smiles": "CC(C)(C)c1cc(O)ccc1O", "note": "[tBHQ, reference compound]", "values": [{"measurement": "ARE activation", "setting": "ARE; positive control, concentration not given", "value": 14.9, "unit": "fold"}]}, {"smiles": "CCCCCCCCCC(=O)/C=C/CCCCCC(N)=O", "note": "[Compound 3, 7(E)-9-keto-octadec-7-enamide]", "values": [{"measurement": "ARE activation", "setting": "ARE; [5]", "value": 4.5, "unit": "fold"}, {"measurement": "ARE activation", "setting": "ARE; [6]", "value": 13.2, "unit": "fold"}]}, {"smiles": "CCCCCCCC(=O)/C=C/CCCCCC(=O)O", "note": "[Compound 2, 7(E)-9-keto-hexadec-7-enoic acid]", "values": [{"measurement": "ARE activation", "setting": "ARE; [5]", "value": 2.8, "unit": "fold"}, {"measurement": "ARE activation", "setting": "ARE; [6]", "value": 30.3, "unit": "fold"}]}]}
